Entries after “also recorded” stand apart in the source; their conditions may differ. Where two headings read alike, the source gives them in different places.
Legend:
HaCaT cells = experiment: Calcium imaging in HaCaT cells; type: cell-based, human; settings: for calcium signals on repeated stimulation: repeated application (500 μM in FIG. 9); for EC50: calcium signal amplitude, read-out: ECR50R value
Procedure: In the fourth application, saturation occurred at approx. 500 μM (FIG. 9d). The ECR50R value was 430 μM of Sandalore® in the first application and 112 μM of Sandalore® in the fourth application.
The Sandalore®-induced signal cascade in HaCaT cells and primary keratinocytes was pharmacologically characterized using the calcium imaging technique and specific blockers of signal cascade proteins. An investigation was first conducted in order to determine whether the calcium signals are caused by calcium inflow from the extracellular space. For this purpose, a calcium-free extracellular solution was used with a calcium chelator (EGTA) added. […] In order to investigate the role of adenylyl cyclase, the specific blockers SQ-22536 and MDL-12330A were used. […] The efficacy of the blockers was tested in this case with histamine, which activated the PLC signalling pathway (FIG. 11c). […]
In order to characterize the antagonists, HaCaT cells were first repeatedly stimulated with Sandalore® (1 mM). On the third application, costimulation (1:1) with Sandalore® and one of the antagonists took place. […] Based on this, dose-dependent characterization of inhibition was to be carried out. For this purpose, Sandalore® and the antagonists were costimulated with different concentrations.
(§1) Effect of the OR2AT4 ligand Sandalore® on intracellular calcium concentration of cultivated keratinocytes. […] 100 μM of ATP was used at the end of each measurement as a positive control stimulus. Right: Quantitative evaluation of calcium signals in 4-time application of Sandalore® (500 μM). Shown are the mean values of the individual applications including standard error. Mann-Whitney U test. *: p<0.05. C) and D): dose-dependent activation of HaCaT cells in calcium imaging experiments. Shown are the mean amplitudes including standard error at various concentrations in the first (C) and fourth (D) Sandalore® application. Number of cells measured: 0.0125 mM (39), 0.025 mM (30), 0.1 mM (46), 0.5 mM (34), 1 mM (63), 2 mM (41), 10 mM (36).
(§2) A) Representative calcium imaging traces of HaCaT cells (left) and primary keratinocytes (right) incubated with the gap junction blocker 1-octanol (500 μM) and then repeatedly stimulated with Sandalore® (500 μM, horizontal bars) (blue trace). […] 100 μM of ATP was used at the end of each measurement as a positive control stimulus. Quantitative evaluation of HaCaT cells (B) and primary keratinocytes (C) incubated with the gap junction blockers 1-octanol (500 μM) or carbenoxolone (10 μM) and then repeatedly stimulated with Sandalore® (500 μM) or Lyral (1 mM) in calcium imaging experiments. Shown are the mean values of the individual applications including standard error relative to the control measurements (Sandalore® application without blocker). Mann-Whitney U test. Number of cells measured: Sandalore®+1-octanol (HaCaT (110), keratinocytes (26)); Sandalore®+carbenoxolone: HaCaT (74); Lyral+carbenoxolone: HaCaT (43). ***: p<0.001.
Pharmacological characterization of Sandalore®-induced signal cascade in human keratinocytes. A)-D). Shown are representative calcium imaging traces of primary keratinocytes in the presence of a blocker (blue). The horizontal bars correspond to the application times. 100 μM of ATP was used at the end of each measurement as a positive control stimulus. A) Measurement with calcium-free extracellular solution (+10 mM EGTA). B) Measurement with the adenylyl cyclase blocker SQ-22536 (100 μM). C) Use of the phospholipase-C blocker U-73122 (10 μM). 100 μM of histamine was taken as a positive control. D) Measurement with the CNG channel blocker L-cis-diltiazem (150 μM). E) Overview of pharmacological measurement of HaCaT cells and primary keratinocytes (Kera). The mean amplitudes relative to the control measurements (dashed line) are indicated. MDL-12330A (40 μM). […]

primary keratinocytes = experiment: Calcium imaging in primary keratinocytes; type: cell-based, human; settings: primary keratinocytes; for calcium signals on repeated stimulation: repeated application (500 μM in FIG. 9)
Source text: The Sandalore®-induced signal cascade in HaCaT cells and primary keratinocytes was pharmacologically characterized using the calcium imaging technique and specific blockers of signal cascade proteins. An investigation was first conducted in order to determine whether the calcium signals are caused by calcium inflow from the extracellular space. For this purpose, a calcium-free extracellular solution was used with a calcium chelator (EGTA) added. […] In order to investigate the role of adenylyl cyclase, the specific blockers SQ-22536 and MDL-12330A were used. […] The efficacy of the blockers was tested in this case with histamine, which activated the PLC signalling pathway (FIG. 11c).
as §1, §2
Pharmacological characterization of Sandalore®-induced signal cascade in human keratinocytes. A)-D). Shown are representative calcium imaging traces of primary keratinocytes in the presence of a blocker (blue). The horizontal bars correspond to the application times. 100 μM of ATP was used at the end of each measurement as a positive control stimulus. A) Measurement with calcium-free extracellular solution (+10 mM EGTA). B) Measurement with the adenylyl cyclase blocker SQ-22536 (100 μM). C) Use of the phospholipase-C blocker U-73122 (10 μM). 100 μM of histamine was taken as a positive control. D) Measurement with the CNG channel blocker L-cis-diltiazem (150 μM). E) Overview of pharmacological measurement of HaCaT cells and primary keratinocytes (Kera). The mean amplitudes relative to the control measurements (dashed line) are indicated. MDL-12330A (40 μM). EGTA: calcium-free Ringer (HaCaT n=46, Kera n=52), SQ: SQ-22536 (HaCaT n=60, Kera n=26), MDL: MDL-12330A (HaCaT n=69, Kera n=24), U-73122 (HaCaT n=41, Kera n=25), L-cis-D.: L-cis-diltiazem (HaCaT n=41, Kera n=25). Mann-Whitney U test. ***: p<0.001. F) Determination of the cAMP contents of HaCaT cells after stimulation with Sandalore® by means of cAMP-Glo™ assays. The dots show the mean cAMP content including standard error after 10-minute Sandalore® stimulation (1 μM-10,000 μM). Significance was determined between HaCaT cells stimulated with Sandalore® and stimulated with an equivalent volume of DMSO (0.2%). Kruskal-Wallis Test with multiple comparison; n=3 experiments. *: p<0.05.

| SMILES | calcium signals on repeated stimulation (HaCaT cells; HaCaT cells) | calcium signals on repeated stimulation (primary keratinocytes) | inhibitory action on Sandalore-induced calcium signals (HaCaT cells; Sandalore 500 μM + antagonist 100 μM) | amplitude heights, % of the control amplitudes (HaCaT cells; Sandalore 500 μM + antagonist 250 μM) | calcium signals, % of the control amplitude (Sandalore without antagonists) (HaCaT cells; Sandalore 500 μM + antagonist 500 μM) | blocking of Sandalore-induced calcium signals (HaCaT cells; antagonist 500 μM, Sandalore 750 μM) | inhibition of Sandalore-induced calcium signals (HaCaT cells; antagonist 500 μM, Sandalore 1 mM) | IC50 (HaCaT cells; inhibition of calcium signals induced by 500 μM Sandalore, read-out: IC50 values (mean inhibitory concentrations)) | effect on Sandalore-induced calcium signals on coapplication (HaCaT cells; third application, costimulation 1:1 with Sandalore 1 mM) | share of cells repeatedly stimulated (HaCaT cells; HaCaT cells, calcium imaging) | calcium signals on repeated stimulation (HaCaT cells; HaCaT cells, listed as Sandalore) | concentration at which dose-dependent activation begins (HaCaT cells; amplitude of the first application) | EC50 (HaCaT cells; first application) | EC50 (HaCaT cells; fourth application) | concentration from which saturation is reached (HaCaT cells; first application) | concentration at which saturation occurred (HaCaT cells; fourth application) | share of cells repeatedly stimulated (primary keratinocytes; calcium imaging) | calcium signals on repeated stimulation (primary keratinocytes; listed as Sandalore) |
| --- | --- | --- | --- | --- | --- | --- | --- | --- | --- | --- | --- | --- | --- | --- | --- | --- | --- | --- |
| CC1=CCC(CCC(C)CO)C1(C)C (centres unmarked) [Brahmanol®] | significant sensitization | significant sensitization |  |  |  |  |  |  |  |  |  |  |  |  |  |  |  |  |
| CC(=O)CCc1ccc(O)cc1 [Oxyphenylon] |  |  | disappeared completely | 39% | 8% | decreased | completely eliminated | 174 µM | significant reduction |  |  |  |  |  |  |  |  |  |
| CC1=CCC(CCC(C)C(C)O)C1(C)C (centres unmarked) [Sandalore®] | significant sensitization; also recorded: induced calcium signals | significant sensitization; also recorded: induced calcium signals |  |  |  |  |  |  |  | 80-90% | significant sensitization | 100 µM | 430 µM | 112 µM | approx. 2 mM | approx. 500 μM | 80-90% | significant sensitization |
